Laboratory results reported in the supplement of paper PMC9663587.

Columns and labels:
Test in all cases: GR value, 72 h; higher = faster growth (1 = untreated, <0 = killing);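 note: breast cancer and non-malignant breast epithelial lines, nine half-log doses, viable cells counted by Hoechst and LIVE/DEAD dye imaging versus time-zero plates and DMSO controls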
[1] = compound: CCc1cnn2c(NCc3ccc[n+]([O-])c3)cc(N3CCCC[C@H]3CCO)nc12
Neratinib/HKI272 = compound: CCOc1cc2ncc(C#N)c(Nc3ccc(OCc4ccccn4)c(Cl)c3)c2cc1NC(=O)/C=C/CN(C)C [Neratinib/HKI272]
THZ531 = compound: CN(C)C/C=C/C(=O)Nc1ccc(C(=O)N2CCC[C@@H](Nc3ncc(Cl)c(-c4c[nH]c5ccccc45)n3)C2)cc1 [THZ531]
BSJ-03-123 = compound: CC(=O)c1c(C)c2cnc(Nc3ccc(N4CCN(CCOCCOCCOCCNC(=O)COc5cccc6c5C(=O)N(C5CCC(=O)NC5=O)C6=O)CC4)cn3)nc2n(C2CCCC2)c1=O [BSJ-03-123]
[2] = compound: CCN1CCN(Cc2ccc(Nc3ncc(F)c(-c4cc(F)c5nc(C)n(C(C)C)c5c4)n3)nc2)CC1
Flavopiridol = compound: CN1CC[C@H](c2c(O)cc(O)c3c(=O)cc(-c4ccccc4Cl)oc23)[C@H](O)C1 [Flavopiridol]

SUM159
GR value ([1]; 0.0001 µM): 1.01 GR | GR value ([1]; 0.0003162 µM): 1.01 GR | GR value ([1]; 0.001 µM): 1.02 GR | GR value ([1]; 0.003162 µM): 1.02 GR | GR value ([1]; 0.01 µM): 0.937 GR | GR value ([1]; 0.03162 µM): -0.0092 GR | GR value ([1]; 0.1 µM): -0.0413 GR | GR value ([1]; 0.3162 µM): -0.0777 GR | GR value ([1]; 1 µM): -0.119 GR | GR value (Neratinib/HKI272; 0.0003162 µM): 1.01 GR | GR value (Neratinib/HKI272; 0.001 µM): 1.02 GR | GR value (Neratinib/HKI272; 0.003162 µM): 1.02 GR | GR value (Neratinib/HKI272; 0.01 µM): 0.994 GR | GR value (Neratinib/HKI272; 0.03162 µM): 0.96 GR | GR value (Neratinib/HKI272; 0.1 µM): 0.927 GR | GR value (Neratinib/HKI272; 0.3162 µM): 0.851 GR | GR value (Neratinib/HKI272; 1 µM): 0.705 GR | GR value (Neratinib/HKI272; 3.162 µM): 0.507 GR | GR value (THZ531; 0.0001 µM): 0.957 GR | GR value (THZ531; 0.0003162 µM): 0.95 GR | GR value (THZ531; 0.001 µM): 0.98 GR | GR value (THZ531; 0.003162 µM): 0.972 GR | GR value (THZ531; 0.01 µM): 0.974 GR | GR value (THZ531; 0.03162 µM): 1.03 GR | GR value (THZ531; 0.1 µM): 0.979 GR | GR value (THZ531; 0.3162 µM): 0.965 GR | GR value (THZ531; 1 µM): 0.61 GR | GR value (BSJ-03-123; 0.001 µM): 0.918 GR | GR value (BSJ-03-123; 0.003162 µM): 0.925 GR | GR value (BSJ-03-123; 0.01 µM): 0.897 GR | GR value (BSJ-03-123; 0.03162 µM): 0.826 GR | GR value (BSJ-03-123; 0.1 µM): 0.826 GR | GR value (BSJ-03-123; 0.3162 µM): 0.797 GR | GR value (BSJ-03-123; 1 µM): 0.687 GR | GR value (BSJ-03-123; 3.162 µM): 0.526 GR | GR value (BSJ-03-123; 10 µM): -0.042 GR | GR value ([2]; 0.001 µM): 0.989 GR | GR value ([2]; 0.003162 µM): 0.962 GR | GR value ([2]; 0.01 µM): 0.897 GR | GR value ([2]; 0.03162 µM): 0.773 GR | GR value ([2]; 0.1 µM): 0.662 GR | GR value ([2]; 0.3162 µM): 0.558 GR | GR value ([2]; 1 µM): 0.405 GR | GR value ([2]; 3.162 µM): 0.308 GR | GR value ([2]; 10 µM): -0.0742 GR | GR value (Flavopiridol; 0.0001 µM): 1.01 GR | GR value (Flavopiridol; 0.0003162 µM): 0.998 GR
